Results as given in ChEMBL document CHEMBL3108733, “Design, synthesis, and evaluation of hydroxamic acid derivatives as promising agents for the management of Chagas disease” (J Med Chem, 2014).
Calls of active or inactive are those of the source. The rule behind the calls is not given here.

Assays:
Trypanosoma cruzi [1] = assay: Inhibition of MMP9 in Trypanosoma cruzi Y epimastigotes assessed as effect on protein level at 32 uM after 5 days by Western blotting analysis
Trypanosoma cruzi [2] = assay: Antitrypanosomal activity against Trypanosoma cruzi Y epimastigotes assessed as growth inhibition at 32 uM after 5 days by Neubauer chamber counting analysis relative to control; type: functional
[3] = Inhibition of Trypanosoma cruzi recombinant carbonic anhydrase-mediated CO2 hydration by stopped-flow assay
Trypanosoma cruzi [4] = assay: Trypanocidal activity against Trypanosoma cruzi Y infected in BALB/c mouse assessed as mouse survival at 100 mg/kg treated from day 2 to day 9 post-infection; type: functional
Trypanosoma cruzi [5] = assay: Trypanocidal activity against Trypanosoma cruzi Y infected in BALB/c mouse assessed as mouse survival at 25 mg/kg treated from day 2 to day 9 post-infection; type: functional
Trypanosoma cruzi [6] = assay: Trypanocidal activity against Trypanosoma cruzi Y infected in BALB/c mouse assessed as reduction in parasitemia at 25 mg/kg treated from day 2 to day 9 post-infection measured on day 9 post-infection; type: functional, organism-based; set-up: dose 25 mg/kg
Trypanosoma cruzi [7] = assay: Trypanocidal activity against Trypanosoma cruzi Y infected in BALB/c mouse assessed as reduction in parasitemia at 25 mg/kg treated from day 2 to day 9 post-infection measured on day 6 post-infection; type: functional, organism-based; set-up: dose 25 mg/kg
[8] = Cytotoxicity against BALB/c mouse peritoneal macrophages after 48 hrs by MTT/LDH assay; type: cell-based, Peritoneal macrophage cell
[9] = Cytotoxicity against BALB/c mouse peritoneal macrophages after 24 hrs by MTT/LDH assay; type: cell-based, Peritoneal macrophage cell
Trypanosoma cruzi [10] = assay: Antitrypanosomal activity against Trypanosoma cruzi Y infected in human THP1 cells assessed as decrease in intracellular amastigotes at 2 uM after 48 hrs by Giemsa staining-based Neubauer chamber counting analysis; type: functional, organism-based; conditions: THP-1
Trypanosoma cruzi [11] = assay: Antitrypanosomal activity against Trypanosoma cruzi Y infected in BALB/c mouse peritoneal macrophages assessed as decrease in trypomastigotes release at 16 uM after 120 hrs by Giemsa staining-based Neubauer chamber counting analysis; type: functional, organism-based
Trypanosoma cruzi [12] = assay: Antitrypanosomal activity against Trypanosoma cruzi Y infected in human THP1 cells assessed as reduction of parasite burden after 48 hrs by Giemsa staining-based Neubauer chamber counting analysis; conditions: THP-1, 48 h
Trypanosoma cruzi [13] = assay: Antitrypanosomal activity against Trypanosoma cruzi Y infected in human THP1 cells assessed as reduction of parasite burden at 32 uM after 48 hrs by Giemsa staining-based Neubauer chamber counting analysis relative to control; type: functional, THP-1; set-up: scale not given: the % may be the effect or the level left
Trypanosoma cruzi [14] = assay: Antitrypanosomal activity against Trypanosoma cruzi Y infected in BALB/c mouse peritoneal macrophages assessed as reduction of parasite burden after 48 hrs by Giemsa staining-based Neubauer chamber counting analysis
Trypanosoma cruzi [15] = assay: Antitrypanosomal activity against Trypanosoma cruzi Y infected in BALB/c mouse peritoneal macrophages assessed as reduction of parasite burden at 32 uM after 48 hrs by Giemsa staining-based Neubauer chamber counting analysis relative to control; type: functional; set-up: scale not given: the % may be the effect or the level left
Trypanosoma cruzi [16] = assay: Antitrypanosomal activity against Trypanosoma cruzi Dm28c trypomastigotes after 48 hrs by Neubauer chamber counting analysis
Trypanosoma cruzi [17] = assay: Antitrypanosomal activity against Trypanosoma cruzi Y trypomastigotes after 48 hrs by Neubauer chamber counting analysis
Trypanosoma cruzi [18] = assay: Antitrypanosomal activity against Trypanosoma cruzi Dm28c trypomastigotes at 16 uM after 48 hrs by Neubauer chamber counting analysis relative to control; type: functional
Trypanosoma cruzi [19] = assay: Antitrypanosomal activity against Trypanosoma cruzi Y trypomastigotes at 16 uM after 48 hrs by Neubauer chamber counting analysis relative to control; type: functional
Trypanosoma cruzi [20] = assay: Antitrypanosomal activity against Trypanosoma cruzi Dm28c epimastigotes after 5 days by resazurin dye-based assay; conditions: 120 h
Trypanosoma cruzi [21] = assay: Antitrypanosomal activity against Trypanosoma cruzi Y epimastigotes after 5 days by resazurin dye-based assay; conditions: 120 h
Trypanosoma cruzi [22] = conditions: Y, 16 uM
Description: Inhibition of MMP9 in Trypanosoma cruzi Y epimastigotes assessed as effect on protein level at 16 uM after 5 days by Western blotting analysis

Trypanosoma cruzi [23] = conditions: Y, 32 to 64 uM
Description: Inhibition of cysteine peptidase in Trypanosoma cruzi Y epimastigotes at 32 to 64 uM after 12 hrs by gelatin zymography assay

Trypanosoma cruzi [24] = conditions: Y, 32 to 64 uM; remark: listed apart in the source
Description: Inhibition of metallopeptidase in Trypanosoma cruzi Y epimastigotes at 32 to 64 uM after 12 hrs by gelatin zymography assay

Carbonic anhydrase 2 = Carbonic anhydrase 2 (Homo sapiens, UniProt P00918); assay: Inhibition of human recombinant carbonic anhydrase-2-mediated CO2 hydration by stopped-flow assay
Carbonic anhydrase 1 = Carbonic anhydrase 1 (Homo sapiens, UniProt P00915); assay: Inhibition of human recombinant carbonic anhydrase-1-mediated CO2 hydration by stopped-flow assay
Sequence of Carbonic anhydrase 1 (P00915 whole entry): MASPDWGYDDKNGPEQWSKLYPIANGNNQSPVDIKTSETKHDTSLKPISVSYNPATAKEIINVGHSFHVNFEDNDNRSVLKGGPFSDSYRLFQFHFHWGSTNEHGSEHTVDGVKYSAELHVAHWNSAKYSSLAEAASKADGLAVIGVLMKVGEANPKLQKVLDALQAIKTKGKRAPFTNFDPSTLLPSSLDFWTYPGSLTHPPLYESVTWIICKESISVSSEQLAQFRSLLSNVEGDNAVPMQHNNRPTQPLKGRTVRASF

In the case of `C[C@H]1c2cccc(O)c2C(=O)C2=C(O)[C@]3(O)C(=O)C(C(N)=O)=C(O)[C@@H](N(C)C)[C@@H]3[C@@H](O)[C@@H]21`, the inhibition (Trypanosoma cruzi [1]) is reported as “inactive”.

With `O=C(NO)C1CC(c2ccccc2)=NO1` (centres undefined) the “growth inhibition (GI)” value (Trypanosoma cruzi [2]) was “inactive” and the Ki [3] was 0.428 µM.

Work on `CC1(C(=O)NO)CC(c2ccccc2F)=NO1` (centres undefined) yielded a Ki [3] of 0.141 µM.

In the case of `O=C(NO)C1CC(c2ccccc2Cl)=NO1` (centres undefined), the “growth inhibition (GI)” value (Trypanosoma cruzi [2]) is reported as “Active” and the Ki [3] is reported as 0.263 µM.

In the case of `O=C(Cn1ccnc1[N+](=O)[O-])NCc1ccccc1` [BENZNIDAZOLE], the “growth inhibition (GI)” value (Trypanosoma cruzi [2]) is reported as “Active” and the Survival (Trypanosoma cruzi [4]) is reported as 25 days.

`O=C(NO)C1CC(c2ccc(OCc3ccccc3)cc2)=NO1` (centres undefined) gave an inhibition of growth at 32 µM (Trypanosoma cruzi [2]; 120 h, read-out: GI) of 100%, a Ki [3] of 0.0398 µM and a Survival (Trypanosoma cruzi [5]) of 25 days. The Activity (Trypanosoma cruzi [6]) was “Active”, the Activity (Trypanosoma cruzi [7]) was “inactive” and the CC50 at 48 h [8] was 64 µM. For the same compound, the CC50 at 24 h [9] was 92 µM, the Activity (Trypanosoma cruzi [10]) was “Active” and the Activity (Trypanosoma cruzi [11]) was “Active”. For the same compound, the IC50 (Trypanosoma cruzi [12]) was < 1 µM, the Activity (Trypanosoma cruzi [13]) was 100% and the IC50 (Trypanosoma cruzi [14]) was 9.1 µM. The Activity (Trypanosoma cruzi [15]) was 5%, the IC50 (Trypanosoma cruzi [16]) was 5.9 µM and the IC50 (Trypanosoma cruzi [17]) was 3.5 µM. The Activity (Trypanosoma cruzi [18]) was 100%, the Activity (Trypanosoma cruzi [19]) was 100% and the IC50 (Trypanosoma cruzi [20]) was 10.4 µM. The IC50 (Trypanosoma cruzi [21]) was 7 µM, the inhibition (Trypanosoma cruzi [22]) was “Active” and the inhibition (Trypanosoma cruzi [23]) was “Active”. The inhibition (Trypanosoma cruzi [24]) was “Active”.

In the case of `CCOc1ccc(C2=NOC(C(=O)NN)C2)cc1` (centres undefined), the Ki [3] is reported as > 100 µM, the Ki (Carbonic anhydrase 2) is reported as > 100 µM and the Ki (Carbonic anhydrase 1) is reported as > 100 µM.

In the case of `O=C(NO)C1CC(c2cccc(Cl)c2)=NO1` (centres undefined), the “growth inhibition (GI)” value (Trypanosoma cruzi [2]) is reported as “Active” and the Ki [3] is reported as 0.267 µM.

In the case of `CCOc1ccccc1C1=NOC(C(=O)NO)C1` (centres undefined), the “growth inhibition (GI)” value (Trypanosoma cruzi [2]) is reported as “Active” and the Ki [3] is reported as 0.0941 µM.

Work on `CC1(C(=O)NO)CC(c2cccc(F)c2)=NO1` (centres undefined) yielded a Ki [3] of 0.182 µM.

In the case of `CCOc1ccc(C2=NOC(C(=O)NO)C2)cc1` (centres undefined), the “growth inhibition (GI)” value (Trypanosoma cruzi [2]) is reported as “Active” and the Ki [3] is reported as 0.0713 µM.

With `CC1(C(=O)NO)CC(c2cccc(Br)c2)=NO1` (centres undefined) the “growth inhibition (GI)” value (Trypanosoma cruzi [2]) was “inactive” and the Ki [3] was 0.615 µM.

With `CCOc1ccccc1C1=NOC(C(=O)NN)C1` (centres undefined) the Ki [3] was > 100 µM, the Ki (Carbonic anhydrase 2) was > 100 µM and the Ki (Carbonic anhydrase 1) was > 100 µM.

For `CC1(C(=O)NO)CC(c2cccc(Cl)c2)=NO1` (centres undefined), the “growth inhibition (GI)” value (Trypanosoma cruzi [2]) was “inactive” and the Ki [3] was 0.365 µM.

In the case of `O=C(NO)C1CC(c2ccc(Cl)cc2)=NO1` (centres undefined), the “growth inhibition (GI)” value (Trypanosoma cruzi [2]) is reported as “Active” and the Ki [3] is reported as 0.189 µM.
